One series relates to PANC-1. As to the kind of experiment: Antitumor activity against human PANC-1 cells xenografted in BALB/c mouse assessed as reduction in tumor volume at 2 mg/kg, iv administered once every 2 days and measured on day 74 relative to control. Particulars: time 74 day. Type of series: functional. The arrangement: scale not given: the % may be the effect or the level left.
The nature of series [1]: Half life in BALB/c mouse plasma at 5 mg/kg, iv by LC-MS/MS analysis.

This note sets out measurements from ChEMBL document CHEMBL6114947, “Navigating cancer therapy: Harnessing the power of peptide-drug conjugates as precision delivery vehicles” (Eur J Med Chem, 2025).

Turning to `COc1cccc2c1C(=O)c1c(O)c3c(c(O)c1C2=O)C[C@@](O)(C(C)=O)C[C@@H]3O[C@H]1C[C@H](N)[C@H](O)[C@H](C)O1` [DAUNORUBICIN], the Activity in the series on PANC-1 was determined as 32.2%.
Regarding `COc1cccc2c1C(=O)c1c(O)c3c(c(O)c1C2=O)C[C@@](O)(C(=O)CO)C[C@@H]3O[C@H]1C[C@H](N)[C@H](O)[C@H](C)O1` [DOXORUBICIN], the half-life in series [1] was 29.4 h.
